Experimental findings from patent US8022225B2, “Triazole derivative” (Taisho Pharmaceutical Co., Ltd, priority 2004, dated 2011) are described below.

Molecules are shown by their SMILES.

The target of assay [1] is T1, human Edg-1(S1P1) (Homo sapiens, UniProt P21453).
T1 construct: expressed in transfected cells; host or cells: HEK-293
The experiment in a line: Cell system binding test: inhibition of [3H]-S1P binding to Edg-1(S1P1) gene transferred HEK-293 cells. As to conditions: 10 μM compound, [3H]-S1P 10 nM, read-out: Cell system binding test % inhibition (10 μM).

The target of assay [2] is T1, human Edg-1(S1P1). The experiment in a line: Membrane system binding test: inhibition of [33P]-S1P binding to the membrane fraction of Edg-1(S1P1) gene transferred HEK-293 cells. As to conditions: 10 μM compound, [33P]-S1P 0.1 nM, membrane fraction of Edg-1(S1P1) gene transferred HEK-293 cells; for inhibition at 10 µM: read-out: Membrane system binding test % inhibition (10 μM). The method, boiled down:
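Compound tested at 10^−5 M final (0.1% DMSO) for blocking 0.1 nM [^33P]-S1P binding to S1P1-expressing HEK-293 membranes, 30 °C, 1 h. Radioactivity retained on filters was counted, and percent inhibition derived relative to vehicle binding, correcting for the background of non-transfected HEK-293 membranes.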

T1 sequence (P21453 whole entry): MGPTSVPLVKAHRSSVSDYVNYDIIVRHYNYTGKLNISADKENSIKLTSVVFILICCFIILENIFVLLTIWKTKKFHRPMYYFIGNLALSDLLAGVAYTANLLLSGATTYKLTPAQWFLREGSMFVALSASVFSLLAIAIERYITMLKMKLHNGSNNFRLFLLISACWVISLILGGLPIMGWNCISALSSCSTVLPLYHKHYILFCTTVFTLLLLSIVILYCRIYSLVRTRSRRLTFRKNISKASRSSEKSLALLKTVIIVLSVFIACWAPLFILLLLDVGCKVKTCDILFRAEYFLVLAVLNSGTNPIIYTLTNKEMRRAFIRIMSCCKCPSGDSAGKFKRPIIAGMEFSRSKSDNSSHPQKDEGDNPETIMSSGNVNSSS

Take `CCn1c(SCCN2CCCC2=O)nnc1[C@@H](C)NS(=O)(=O)c1ccc(Cl)cc1` [Compound 78]: the inhibition at 10 µM at human Edg-1(S1P1) [1] came to 83%; at human Edg-1(S1P1) [2], 96.5%.

Consider `CCn1c(SCCCN2CCCC2=O)nnc1[C@@H](C)NS(=O)(=O)c1ccc(Cl)cc1` [Compound 79], for which the inhibition at 10 µM on human Edg-1(S1P1) [1] was 84.7%; at human Edg-1(S1P1) [2], 94.9%.

Take `CCn1c(SCCS(=O)(=O)c2ccccc2)nnc1[C@@H](C)NS(=O)(=O)c1ccc(Cl)cc1` [Compound 80]: the inhibition at 10 µM at human Edg-1(S1P1) [1] was 86.2%; on human Edg-1(S1P1) [2], 87.5%.

On to `CCn1c(SCc2ccc([N+](=O)[O-])cc2)nnc1[C@@H](C)NS(=O)(=O)c1ccc(Cl)cc1` [Compound 81], for which the inhibition at 10 µM on human Edg-1(S1P1) [1] is 87.6%; at human Edg-1(S1P1) [2], 110%.

For the compound `CCn1c(SCc2ccc(NC(C)=O)cc2)nnc1[C@@H](C)NS(=O)(=O)c1ccc(Cl)cc1` [Compound 82], the inhibition at 10 µM on human Edg-1(S1P1) [1] was 84.7%; at human Edg-1(S1P1) [2], 90.4%.

On to `CCn1c(SCC(N)=O)nnc1[C@@H](C)NS(=O)(=O)c1ccc(Cl)cc1` [Compound 83], for which the values for the inhibition at 10 µM at human Edg-1(S1P1) [1] and at human Edg-1(S1P1) [2] were 85.6% and 99.5%, respectively.

As for `CCn1c(SCCn2ccnc2)nnc1[C@@H](C)NS(=O)(=O)c1ccc(Cl)cc1` [Compound 84], the inhibition at 10 µM on human Edg-1(S1P1) [1] turned out to be 87.9%; on human Edg-1(S1P1) [2] it was 100%.

In the case of `CCn1c(SCCc2c[nH]c3ccccc23)nnc1[C@@H](C)NS(=O)(=O)c1ccc(Cl)cc1` [Compound 85], the inhibition at 10 µM at human Edg-1(S1P1) [1] amounted to 90.4%; at human Edg-1(S1P1) [2], 106%.

As for `CCn1c(SCCC23CC4CC(CC(C4)C2)C3)nnc1[C@@H](C)NS(=O)(=O)c1ccc(Cl)cc1` [Compound 86], the figures for the inhibition at 10 µM at human Edg-1(S1P1) [1] and on human Edg-1(S1P1) [2] were 93.4% and 110%, respectively.

In the case of `CCn1c(SCCCC(C)=O)nnc1[C@@H](C)NS(=O)(=O)c1ccc(Cl)cc1` [Compound 87], the inhibition at 10 µM came out at 82.7% at human Edg-1(S1P1) [1] and 84.7% at human Edg-1(S1P1) [2].

On to `CCn1c(SCCC(C)(C)C)nnc1[C@@H](C)NS(=O)(=O)c1ccc(Cl)cc1` [Compound 88], for which the inhibition at 10 µM at human Edg-1(S1P1) [1] was 87.6%; at human Edg-1(S1P1) [2] it was 97.1%.

On to `C=CCSc1nnc(C(C)NS(=O)(=O)c2ccc(Cl)cc2)n1C` (stereo not drawn) [Compound 91], for which the figures for the inhibition at 10 µM on human Edg-1(S1P1) [1] and at human Edg-1(S1P1) [2] were 72.9% and 47.4%, respectively.

`C=CCSc1nnc([C@@H](C)NS(=O)(=O)c2ccc(Cl)cc2)n1CCC` [Compound 95]: the inhibition at 10 µM on human Edg-1(S1P1) [1] was found to be 94%; on human Edg-1(S1P1) [2], 60.2%.

Turning to `C=CCSc1nnc([C@@H](C)NS(=O)(=O)c2ccc(Cl)cc2)n1C(C)C` [Compound 97], the inhibition at 10 µM at human Edg-1(S1P1) [1] was 88.9%; on human Edg-1(S1P1) [2], 52.5%.

`C=CCSc1nnc(CNS(=O)(=O)c2ccc(Cl)cc2)n1CC` [Compound 104]: the inhibition at 10 µM is 99.5% on human Edg-1(S1P1) [1] and 42.1% at human Edg-1(S1P1) [2].

Turning to `C=CCSc1nnc([C@@H](CC)NS(=O)(=O)c2ccc(Cl)cc2)n1C` [Compound 106], the inhibition at 10 µM on human Edg-1(S1P1) [1] turned out to be 86.9%. For the same compound, the “Membrane system binding test % inhibition (10 μM)” value on human Edg-1(S1P1) [2] is given as 52.5%.

Turning to `C=CCSc1nnc(C(CC)NS(=O)(=O)c2ccc(Cl)cc2)n1CC` (stereo not drawn) [Compound 109], the inhibition at 10 µM at human Edg-1(S1P1) [1] worked out at 93%; on human Edg-1(S1P1) [2], 100%.

On to `C=CCSc1nnc([C@@H](CC)NS(=O)(=O)c2ccc(Cl)cc2)n1CCC` [Compound 113], for which, on human Edg-1(S1P1) [1], the inhibition at 10 µM worked out at 84%. The “Membrane system binding test % inhibition (10 μM)” value at human Edg-1(S1P1) [2] is reported as 46.3%.

`C=CCSc1nnc([C@@H](CC)NS(=O)(=O)c2ccc(Cl)cc2)n1C(C)C` [Compound 117]: the inhibition at 10 µM on human Edg-1(S1P1) [1] was determined as 93.6%; at human Edg-1(S1P1) [2], 83.8%.

Take `C=CCSc1nnc([C@@H](Cc2ccccc2)NS(=O)(=O)c2ccc(Cl)cc2)n1C` [Compound 134]: the figures for the inhibition at 10 µM at human Edg-1(S1P1) [1] and on human Edg-1(S1P1) [2] were 88.8% and 84.8%, respectively.

`C=CCSc1nnc(C(Cc2ccccc2)NS(=O)(=O)c2ccc(Cl)cc2)n1C` (stereo not drawn) [Compound 135]: the values for the inhibition at 10 µM on human Edg-1(S1P1) [1] and at human Edg-1(S1P1) [2] were 86.7% and 96.9%, respectively.

Regarding `C=C(C)CSc1nnc(C(Cc2ccccc2)NS(=O)(=O)c2ccc(Cl)cc2)n1C` (stereo not drawn) [Compound 136], the inhibition at 10 µM was found to be 103% at human Edg-1(S1P1) [1] and 94.7% at human Edg-1(S1P1) [2].

As to `Cn1c(SCc2ccc(Cl)c(Cl)c2)nnc1C(Cc1ccccc1)NS(=O)(=O)c1ccc(Cl)cc1` (stereo not drawn) [Compound 137], the inhibition at 10 µM at human Edg-1(S1P1) [1] was found to be 99%; at human Edg-1(S1P1) [2], 57.1%.

As for `C=CCSc1nnc([C@@H](Cc2ccccc2)NS(=O)(=O)c2ccc(Cl)cc2)n1CC` [Compound 138], the results for the inhibition at 10 µM at human Edg-1(S1P1) [1] and on human Edg-1(S1P1) [2] were 94.7% and 102%, respectively.

Turning to `CCCSc1nnc([C@@H](Cc2ccccc2)NS(=O)(=O)c2ccc(Cl)cc2)n1CC` [Compound 139], the inhibition at 10 µM on human Edg-1(S1P1) [1] worked out at 91%; on human Edg-1(S1P1) [2], 107%.

With `C=CCSc1nnc([C@@H](Cc2ccccc2)NS(=O)(=O)c2ccc(Cl)cc2)n1CCC` [Compound 141], the inhibition at 10 µM on human Edg-1(S1P1) [1] turned out to be 94.8%; at human Edg-1(S1P1) [2], 79.5%.

Regarding `C=CCSc1nnc([C@@H](Cc2ccccc2)NS(=O)(=O)c2ccc(Cl)cc2)n1C(C)C` [Compound 143], the inhibition at 10 µM at human Edg-1(S1P1) [1] stood at 96%; on human Edg-1(S1P1) [2], 88.7%.

Consider `C=CCSc1nnc(C(Cc2ccccc2)NS(=O)(=O)c2ccc(F)cc2)n1CC` (stereo not drawn) [Compound 169], for which the inhibition at 10 µM at human Edg-1(S1P1) [1] is 67.5%; on human Edg-1(S1P1) [2] it was 72.9%.

For the compound `CCn1c(OC)nnc1[C@@H](C)NS(=O)(=O)c1ccc(Cl)cc1` [Compound 185], the inhibition at 10 µM was determined as 87.4% on human Edg-1(S1P1) [1] and 86.6% on human Edg-1(S1P1) [2].

Take `CCOc1nnc([C@@H](C)NS(=O)(=O)c2ccc(Cl)cc2)n1CC` [Compound 186]: the results for the inhibition at 10 µM at human Edg-1(S1P1) [1] and on human Edg-1(S1P1) [2] were 89.3% and 94.5%, respectively.

With `CCn1c(OCCN(C)C)nnc1[C@@H](C)NS(=O)(=O)c1ccc(Cl)cc1` [Compound 187], the inhibition at 10 µM on human Edg-1(S1P1) [1] is 82.9%; on human Edg-1(S1P1) [2], 46.4%.

On to `CCn1c(OCCCN(C)C)nnc1[C@@H](C)NS(=O)(=O)c1ccc(Cl)cc1` [Compound 188], for which the inhibition at 10 µM was 82% on human Edg-1(S1P1) [1] and 46.3% on human Edg-1(S1P1) [2].

`CCn1c(OCCCCCCN(C)C)nnc1[C@@H](C)NS(=O)(=O)c1ccc(Cl)cc1` [Compound 189]: the figures for the inhibition at 10 µM on human Edg-1(S1P1) [1] and at human Edg-1(S1P1) [2] were 105% and 107%, respectively.

Consider `CCn1c(OCCO)nnc1[C@@H](C)NS(=O)(=O)c1ccc(Cl)cc1` [Compound 190], for which the inhibition at 10 µM was determined as 91.1% on human Edg-1(S1P1) [1] and 41.3% at human Edg-1(S1P1) [2].

On to `CCn1c(OCCCO)nnc1[C@@H](C)NS(=O)(=O)c1ccc(Cl)cc1` [Compound 191], for which the values for the inhibition at 10 µM on human Edg-1(S1P1) [1] and at human Edg-1(S1P1) [2] were 97.1% and 88.3%, respectively.

As to `CCCCCCCCCCCCCCCCOc1nnc([C@@H](C)NS(=O)(=O)c2ccc(Cl)cc2)n1CC` [Compound 192], the inhibition at 10 µM came out at 75.5% on human Edg-1(S1P1) [1] and 105% on human Edg-1(S1P1) [2].

For `CCn1c(OC)nnc1[C@H](C)NS(=O)(=O)c1cccc(Cl)c1` [Compound 193], the inhibition at 10 µM at human Edg-1(S1P1) [1] is 108%; on human Edg-1(S1P1) [2], 64.4%.

Turning to `CCCOc1nnc([C@@H](C)NS(=O)(=O)c2ccc(OC)cc2)n1CC` [Compound 195], the inhibition at 10 µM on human Edg-1(S1P1) [1] worked out at 103%; on human Edg-1(S1P1) [2], 91.2%.

Turning to `CCCOc1nnc([C@@H](C)NS(=O)(=O)c2ccc(C)cc2)n1CC` [Compound 196], the values for the inhibition at 10 µM at human Edg-1(S1P1) [1] and on human Edg-1(S1P1) [2] were 106% and 88.5%, respectively.
